Measurements: patent publication US11326207B2, “Sequencing using non-natural nucleotides” (Ultima Genomics, Inc., priority 2017, dated 2022)
Where two headings read alike, the source gives them in different places.

What was measured:
Bst DNA polymerase v.2.0 = test: Competition assay: one base extension, capillary electrophoresis and flow cytometry (Example 6); type: biochemical
Protocol: The final concentrations of various nucleotides in the mixtures were 5 micromolar (μM). […] A solution of biotinylated template (2 microliters (μL) of 100 μM) and dye-labeled primer (4 μL of 100 μM) were combined in annealing buffer (40 μL; Tris (10 millimolar (mM)), EDTA (1 mM), NaCl (100 mM)). The resulting solution was heated to 95° C. and allowed to slowly cool to room temperature. […] New England Biolabs) for five minutes. […] Next, a portion of the suspended magnetic beads (10 μL) were removed and placed in a PCR tube. A solution of nucleotides (10 μL) was added to the tube and the tube incubated for 40 seconds (s) at 50° C. The enzyme reaction was stopped with the addition of 5 μL of 50 mM EDTA. The beads were washed with 2×100 μL TET and resuspended in 20 μL TET. […] The eluant of the remaining beads was removed and 40 μL of 95:5 formamide:10 mM EDTA was added to the beads. A portion of the formamide solution (1 μL) was added to 40 μL 95:5 formamide EDTA. The solutions were examined by capillary electrophoresis (CE) on an ABI 3730 instrument and the peaks identified and quantitated by peak height. The experimental protocol is summarized schematically in FIG. 2.

hairpin oligo = test: Kinetic assay using hairpin oligos (Example 7); type: biochemical
Protocol: A kinetic assay using hairpin oligos was also performed to determine the rate of incorporate of an unnatural nucleotide and a natural nucleotide following the unnatural nucleotide. […] Incorporation of a T or U analog unquenched a fluorescein in the hairpin oligo. Following incorporation of the T or U analog, a mixture of C and A was added, which further unquenched the dye.

Bst DNA polymerase = target: T1, Bst DNA polymerase (Geobacillus stearothermophilus, UniProt P52026); test: Stepwise sequencing with TTP and E-dUTP, context metric (Example 8); type: biochemical; conditions: 0.05 fraction of dUTP*
T1 sequence (P52026 1-876): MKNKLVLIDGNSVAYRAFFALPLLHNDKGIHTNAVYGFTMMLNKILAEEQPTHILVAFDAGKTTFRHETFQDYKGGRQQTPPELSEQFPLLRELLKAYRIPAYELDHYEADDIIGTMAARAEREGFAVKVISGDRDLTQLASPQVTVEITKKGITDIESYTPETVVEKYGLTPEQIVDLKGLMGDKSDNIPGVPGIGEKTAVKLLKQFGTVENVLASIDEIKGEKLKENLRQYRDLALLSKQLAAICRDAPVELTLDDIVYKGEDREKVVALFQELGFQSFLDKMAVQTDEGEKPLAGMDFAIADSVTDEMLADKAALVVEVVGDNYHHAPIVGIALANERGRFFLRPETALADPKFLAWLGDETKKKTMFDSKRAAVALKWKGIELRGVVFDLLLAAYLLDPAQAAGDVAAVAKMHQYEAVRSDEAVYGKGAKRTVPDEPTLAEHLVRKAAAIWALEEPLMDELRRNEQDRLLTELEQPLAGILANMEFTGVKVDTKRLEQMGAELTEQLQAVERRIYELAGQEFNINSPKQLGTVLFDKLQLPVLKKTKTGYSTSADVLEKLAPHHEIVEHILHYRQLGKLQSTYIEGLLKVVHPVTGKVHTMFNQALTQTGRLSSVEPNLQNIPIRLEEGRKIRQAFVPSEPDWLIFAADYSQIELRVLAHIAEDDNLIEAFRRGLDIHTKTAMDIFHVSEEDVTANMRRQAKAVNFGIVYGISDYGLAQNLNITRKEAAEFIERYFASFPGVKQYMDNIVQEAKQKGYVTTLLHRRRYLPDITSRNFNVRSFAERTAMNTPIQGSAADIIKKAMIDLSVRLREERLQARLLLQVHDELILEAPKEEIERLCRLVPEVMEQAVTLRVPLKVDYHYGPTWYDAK
Excerpt: A microscope slide surface was modified with polyaminosilane to allow the attachment of 1 micron beads each containing one of three different oligonucleotide templates. To each template was bound an oligonucleotide primer and Bst DNA polymerase. Solutions of mixtures of labeled and unlabeled nucleotide, of one type at a time, were exposed to the surface, followed by a wash solution. The fluorescence of labeled beads was detected and quantitated. The fluorescence label was cleaved by treatment with tris(hydroxypropyl)phosphine (THP) after each step.
Context was measured for each experiment. Context is given by the context metric, C, which is defined as the (maximum-minimum signal)/average signal.

Bst 2.0 DNA polymerase = test: Homopolymer assays of nucleotide analogs (Example 10); type: biochemical; conditions: Natural Nucleotide T (TTP = 1); template oligo 332, primer 221L
Protocol: A homopolymer assay was performed to investigate the effectiveness of E-dCTP and P-dUTP as nucleotide analogs of dCTP. 50 μl solutions containing a template nucleic acid molecule and primer and Bst 2.0 DNA polymerase are placed in a microplate reader and the fluorescence of the solution is measured in kinetic mode. A fluorescein attached to an oligonucleotide (indicated with a * in FIG. 7) was quenched in the substrate due to the proximity of complementary G bases. Addition of dCTP and/or dCTP analogs causes extension of the 3′ end of the primer, formation of double-stranded DNA, and unquenching of the fluorescein. The fluorescence increases with the addition of multiple nucleotides.
Additional homopolymer assays were performed according to the procedure outlined in Example 8 using different nucleotides and nucleotide analogs.
To test for dUTP or TTP incorporation, oligo 332 was used as a template and oligo 221L was used as a primer. To test for dCTP incorporation, oligo 333 was used as a template and oligo 221L was used as a primer. To test for dGTP incorporation, oligo 334 was used as a template and oligo 221L was used as a primer. To test for dATP incorporation, hairpin oligo 221 was used as both a primer and template.

DNA polymerase = conditions: for peak height (red fluorescence on the gel): dUTP* only (Fr = 1.0) or dUTP*/named dUTP^0
Protocol: A gel assay was also performed to examine context-dependent incorporation. […] The primers had different lengths poly-T tails to enable separation on a polyacrylamide gel. […] Excess nucleotides and nucleotide analogs were washed away and the sample was loaded onto a gel.
The red fluorescence on the gel was analyzed with ImageJ. The peak heights for the extension reactions for each primer with Fr=1.0 was measured. […] The ratios of the peak heights for each pair were calculated (“norm.”). […] The metric in this experiment was context, as defined as: C=(Maximum signal−minimum signal)/(average signal).

SMILES: Cc1cn([C@H]2C[C@H](O)[C@@H](COP(=O)(O)OP(=O)(O)OP(=O)(O)O)O2)c(=O)[nH]c1=O [TTP, thymidine triphosphate, reference compound]
- CE product peaks of one base extension in competition with dUTP* (Bst DNA polymerase v.2.0; 5 micromolar, 40 s at 50° C.): yields only a Pr-T peak
- flow cytometry signal of one base extension in competition with dUTP* (Bst DNA polymerase v.2.0; beads before stripping): relatively low
- incorporation of dCTP and dATP after the dUTP analog (hairpin oligo; mixture of C and A added after T or U analog): rapid
- initial incorporation of dUTP analog (hairpin oligo; unquenching of fluorescein in hairpin oligo): rapid
- C (context metric) (Bst DNA polymerase; Oligonucleotide template 1): 0.86
- C (context metric) (Bst DNA polymerase; Oligonucleotide template 2): 0.73
- C (context metric) (Bst DNA polymerase; Oligonucleotide template 3): 0.71
- Relative Rate in Homopolymer Assay (Bst 2.0 DNA polymerase): 1
- Norm. (ratio of peak height dUTP*/dUTP^0 to Fr=1.0) (DNA polymerase; Peak 1): 1.1
- peak height (red fluorescence on the gel) (DNA polymerase; Peak 1 (primer)): 48
- Norm. (ratio of peak height dUTP*/dUTP^0 to Fr=1.0) (DNA polymerase; Peak 2): 1.4
- peak height (red fluorescence on the gel) (DNA polymerase; Peak 2 (primer)): 56
- Norm. (ratio of peak height dUTP*/dUTP^0 to Fr=1.0) (DNA polymerase; Peak 3): 1.0
- peak height (red fluorescence on the gel) (DNA polymerase; Peak 3 (primer)): 25
- Norm. (ratio of peak height dUTP*/dUTP^0 to Fr=1.0) (DNA polymerase; Peak 4): 1.2
- peak height (red fluorescence on the gel) (DNA polymerase; Peak 4 (primer)): 38
- Norm. (ratio of peak height dUTP*/dUTP^0 to Fr=1.0) (DNA polymerase; Peak 5): 1.7
- peak height (red fluorescence on the gel) (DNA polymerase; Peak 5 (primer)): 38
- context C=(Maximum signal−minimum signal)/(average signal) (DNA polymerase; five primers, gel assay with dUTP*): 0.54
